# Several values for one entry are separate records, joined by “and”; a condition that tells them apart may be missing. Equal entries are not always repeated.
# Target: T1, Gal4-HNF4α (human HNF4α LBD) (Homo sapiens, UniProt P41235)
# T1 construct: uniprot entry: P41235-1, residues 142-377; expressed in transfected cells; host or cells: HEK293T
# T1 sequence (P41235 142-377): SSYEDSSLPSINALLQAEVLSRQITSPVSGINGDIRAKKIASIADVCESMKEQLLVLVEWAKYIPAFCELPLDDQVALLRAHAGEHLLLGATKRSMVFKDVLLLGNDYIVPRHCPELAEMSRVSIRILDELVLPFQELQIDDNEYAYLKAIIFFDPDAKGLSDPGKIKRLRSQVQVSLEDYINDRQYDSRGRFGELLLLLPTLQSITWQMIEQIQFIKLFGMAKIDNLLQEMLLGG
# Assay: Hybrid Gal4-HNF4α reporter gene assay in transiently transfected HEK293T cells
# Assay type: cell-based
# Conditions: Table S1, primary screening, 50 µM
row,SMILES,HNF4a-screening_activity_(mean_of_n=2)
1,"CC(=O)c1ccc(O)cc1O [Prestw-Frag-2506, CC(=O)c1ccc(O)cc1O]",0.9153
2,"Fc1cccnc1N1CCCC1 [Prestw-Frag-3150, Fc1cccnc1N1CCCC1]",1.041
3,"CCOc1ccccc1C(=N)N [Prestw-Frag-3314, CCOc1ccccc1C(N)=N]",1.051
4,"Cc1c(O)c2ccccc2oc1=O [Prestw-Frag-1130, Cc1c(O)c2ccccc2oc1=O]",0.9979
5,"Oc1ccc2[nH]ccc2c1 [Prestw-Frag-1645, Oc1ccc2[nH]ccc2c1]",1.016
6,"CCN1CCCC1CNC(=O)c1ccc(N)cc1 (centres unmarked) [Prestw-Frag-1632, CCN1CCCC1CNC(=O)c1ccc(N)cc1]",0.8541
7,"Oc1ccc(-c2ccc(F)cc2F)cc1 [Prestw-Frag-1237, Oc1ccc(cc1)-c1ccc(F)cc1F]",0.9944
8,"COC(=O)C1=C(C)NC(C)=C(C(=O)OC)C1 [Prestw-Frag-1547, COC(=O)C1=C(C)NC(C)=C(C1)C(=O)OC]",0.9986
9,"CCc1cccc2c(CCO)c[nH]c12 [Prestw-Frag-1299, CCc1cccc2c(CCO)c[nH]c12]",1.255
10,"O=c1ccc2ccccc2o1 [Prestw-Frag-1000, O=c1ccc2ccccc2o1]",1.227
11,"CC(=O)N(CCC(=O)O)c1ccccc1 [Prestw-Frag-2487, CC(=O)N(CCC(O)=O)c1ccccc1]",0.9613
12,"c1ccc(C2CCCNCC2)cc1 (centres unmarked) [Prestw-Frag-3712, C1CNCCC(C1)c1ccccc1]",1.122
13,"Cc1cc(C)nc(O)n1 [Prestw-Frag-3247, Cc1cc(C)nc(O)n1]",1.288
14,"C[N+](C)(CCO)Cc1ccccc1 [Prestw-Frag-1017, C[N+](C)(CCO)Cc1ccccc1]",0.8969 and 1.169
15,"COc1ccc2[nH]cnc2c1 [Prestw-Frag-3678, COc1ccc2[nH]cnc2c1]",0.9895
16,"c1ccc(CNc2ccccn2)cc1 [Prestw-Frag-1475, C(Nc1ccccn1)c1ccccc1]",1.278
17,"COc1ccc(CCN(C)C)cc1OC [Prestw-Frag-1445, COc1ccc(CCN(C)C)cc1OC]",1.047 and 0.984
18,"c1ccc2[nH]c(CN3CCCC3)nc2c1 [Prestw-Frag-1164, C(N1CCCC1)c1nc2ccccc2[nH]1]",0.7439 and 0.7907
19,"CN1Cc2c(N)cccc2C(c2ccccc2)C1 (centres unmarked) [Prestw-Frag-1552, CN1CC(c2ccccc2)c2cccc(N)c2C1]",1.162
20,"OCCN1CCN(c2ccccc2)CC1 [Prestw-Frag-1945, OCCN1CCN(CC1)c1ccccc1]",1.061
21,"OC(c1ccccc1)c1ccccc1 [Prestw-Frag-1122, OC(c1ccccc1)c1ccccc1]",1.034
22,"CC(=O)Nc1ncc([N+](=O)[O-])s1 [Prestw-Frag-1750, CC(=O)Nc1ncc(s1)[N+]([O-])=O]",1.04 and 0.8827

row,SMILES,HNF4a-screening_activity_(mean_of_n=2)
1,"CN(C)CCNCc1ccccc1 [Prestw-Frag-1476, CN(C)CCNCc1ccccc1]",1.113
2,"NCc1ncc[nH]1 [Prestw-Frag-3689, NCc1ncc[nH]1]",0.8561
3,"COc1ccc(C(=O)O)cc1N1CCCC1 [Prestw-Frag-1313, COc1ccc(cc1N1CCCC1)C(O)=O]",1.093
4,"COc1ccccc1N1CCN(CCCN)CC1 [Prestw-Frag-2569, COc1ccccc1N1CCN(CCCN)CC1]",1.212
5,"NCCc1c[nH]c2ccc(O)cc12 [Prestw-Frag-1643, NCCc1c[nH]c2ccc(O)cc12]",1.007
6,"COC(=O)C(O)(c1ccccc1)C1CCCCC1 (centres unmarked) [Prestw-Frag-1867, COC(=O)C(O)(C1CCCCC1)c1ccccc1]",1.91 and 1.155
7,"Cc1nccn1CCO [Prestw-Frag-1517, Cc1nccn1CCO]",0.9796 and 1.002
8,"O=C(O)CCCc1ccc(-c2ccccc2)cc1 [Prestw-Frag-1767, OC(=O)CCCc1ccc(cc1)-c1ccccc1]",0.6264
9,"NNC(=O)c1ccccc1 [Prestw-Frag-1420, NNC(=O)c1ccccc1]",1.278
10,"Oc1cc(Cl)c(Cl)cc1Cl [Prestw-Frag-2898, Oc1cc(Cl)c(Cl)cc1Cl]",5.433
11,"COc1cc2c(cc1O)CCN[C@H]2C [Prestw-Frag-1063, COc1cc2[C@H](C)NCCc2cc1O]",1.128
12,"CC(C)(CN)c1ccccc1 [Prestw-Frag-3733, CC(C)(CN)c1ccccc1]",1.132
13,"C[C@H]1NC(=O)NC1=O [Prestw-Frag-1311, C[C@H]1NC(=O)NC1=O]",1.09
14,"Nc1cnc2ccccc2n1 [Prestw-Frag-3679, Nc1cnc2ccccc2n1]",0.8882
15,"CCN(CC)Cc1cc(N)ccc1O [Prestw-Frag-1462, CCN(CC)Cc1cc(N)ccc1O]",1.135
16,"Oc1ccc(Cc2ccccc2)cc1 [Prestw-Frag-3455, Oc1ccc(Cc2ccccc2)cc1]",0.7887
17,"OCCOc1cccc2[nH]ccc12 [Prestw-Frag-1595, OCCOc1cccc2[nH]ccc12]",0.8145 and 1.05
18,"O=C(O)c1cc(-c2ccc(F)cc2)ccc1O [Prestw-Frag-1239, OC(=O)c1cc(ccc1O)-c1ccc(F)cc1]",1.018 and 1.049
19,"OCc1cc2ccccc2[nH]1 [Prestw-Frag-1297, OCc1cc2ccccc2[nH]1]",1.241
20,"COc1ccc2ccncc2c1 [Prestw-Frag-1133, COc1ccc2ccncc2c1]",1.332
21,"CN1CCN(S(=O)(=O)c2ccccc2)CC1 [Prestw-Frag-3012, CN1CCN(CC1)S(=O)(=O)c1ccccc1]",0.8018
22,"N#CC1(c2ccc(F)cc2)CCCCC1 [Prestw-Frag-2647, Fc1ccc(cc1)C1(CCCCC1)C#N]",0.99

row,SMILES,HNF4a-screening_activity_(mean_of_n=2)
1,"OC1CCN(c2ccccc2F)CC1 [Prestw-Frag-2803, OC1CCN(CC1)c1ccccc1F]",1.103
2,"O=C(O)C1(c2ccccc2)CCCC1 [Prestw-Frag-2049, OC(=O)C1(CCCC1)c1ccccc1]",0.9983
3,"O=C(O)COc1ccccc1 [Prestw-Frag-2577, OC(=O)COc1ccccc1]",1.064
4,"Cc1[nH]cnc1CO [Prestw-Frag-3752, Cc1[nH]cnc1CO]",1.105
5,"O=C(O)c1ccccc1Nc1cccc(Cl)c1 [Prestw-Frag-1319, OC(=O)c1ccccc1Nc1cccc(Cl)c1]",0.64
6,"O=C(O)CCc1ncc(-c2ccccc2)o1 [Prestw-Frag-2693, OC(=O)CCc1ncc(o1)-c1ccccc1]",0.8237
7,"NC(=O)COc1ccc(Cl)cc1 [Prestw-Frag-1833, NC(=O)COc1ccc(Cl)cc1]",1.468 and 0.8655
8,"CN1CCN(c2cc(N)ncn2)CC1 [Prestw-Frag-3262, CN1CCN(CC1)c1cc(N)ncn1]",1.186
9,"COc1ccc2[nH]cc(CCN)c2c1 [Prestw-Frag-1480, COc1ccc2[nH]cc(CCN)c2c1]",1.025 and 1.119
10,"c1ccc2c3c([nH]c2c1)CNCC3 [Prestw-Frag-1014, C1Cc2c(CN1)[nH]c1ccccc21]",0.999 and 1.943
11,"NCc1cscn1 [Prestw-Frag-3747, NCc1cscn1]",0.9617
12,"O=C1c2ccc(Cl)cc2CCc2cccnc21 [Prestw-Frag-3073, Clc1ccc2c(CCc3cccnc3C2=O)c1]",0.9858
13,"Nc1c(Cl)ccc2nsnc12 [Prestw-Frag-1492, Nc1c(Cl)ccc2nsnc12]",1.089
14,"O=C1CNCCN1 [Prestw-Frag-3458, O=C1CNCCN1]",1.246
15,"OCC1CCNCC1 [Prestw-Frag-3727, OCC1CCNCC1]",0.8559
16,"NC(=O)c1ccccc1O [Prestw-Frag-1439, NC(=O)c1ccccc1O]",1.146
17,"CC(Oc1ccccc1)C(N)=O (centres unmarked) [Prestw-Frag-1200, CC(Oc1ccccc1)C(N)=O]",0.9571 and 0.9481
18,"CNCCc1c[nH]c2ccccc12 [Prestw-Frag-1356, CNCCc1c[nH]c2ccccc12]",0.7184 and 0.9553
19,"O=C1CNCN1 [Prestw-Frag-3718, O=C1CNCN1]",1.053
20,"COc1cc2c(cc1OC)CN(C)CC2 [Prestw-Frag-1275, COc1cc2CCN(C)Cc2cc1OC]",0.9717 and 0.8575
21,"c1ccc(N2CCNCC2)nc1 [Prestw-Frag-1110, C1CN(CCN1)c1ccccn1]",1.308

# Source: PMC7660650, “Chemical Starting Matter for HNF4α Ligand Discovery and Chemogenomics” (International Journal of Molecular Sciences, 2020)
